Measurements as given in PubChem BioAssay (NCI).
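Grown in 96-well plates, cells were treated for 48 hours with each compound at five concentrations. Insufficient inhibition: endpoint recorded as highest concentration tested. TGI marks complete inhibition of growth.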

How the values were obtained:
Test in all cases: growth of human tumour cells (NCI), 48 h
[1] = test system: M14 melanoma
[2] = test system: HL-60(TB) leukemia
[3] = test system: CCRF-CEM leukemia
[4] = test system: HOP-92 NSCLC
[5] = test system: HS 578T breast
[6] = test system: MDA-MB-435
[7] = test system: OVCAR-8 ovarian
[8] = test system: SNB-75 CNS
[9] = test system: SNB-19 CNS
[10] = test system: SN12C renal
[11] = test system: UACC-257 melanoma
[12] = test system: NCI-H522 lung

Structure (SMILES)	TGI [1]	TGI [2]	TGI [3]	TGI [4]	TGI [5]	TGI [6]	TGI [7]	TGI [8]	TGI [9]	TGI [10]	TGI [11]	TGI [12]
CCOC(=O)c1cnc2[nH]ccn2c1=O	> 10 µM	> 10 µM	> 10 µM	> 10 µM	> 10 µM	> 10 µM	> 10 µM	> 10 µM	> 10 µM	> 10 µM	> 10 µM	–
Nc1ncnc2c1ncn2C(=O)NC12CC3CC(CC(C3)C1)C2	> 100 µM	> 100 µM	> 100 µM	> 100 µM	> 100 µM	> 100 µM	> 100 µM	> 100 µM	> 100 µM	> 100 µM	> 100 µM	–
N#Cc1c(OCCF)c2ccccc2n2c1nc1ccccc12	> 100 µM	> 100 µM	> 100 µM	–	> 100 µM	> 100 µM	> 100 µM	> 100 µM	> 100 µM	–	> 100 µM	> 100 µM
C/C(=N/NC(=S)Nc1cccc(C)c1)c1ccccn1	2.46 µM	< 0.158 µM	–	6.12 µM	41.1 µM	3.5 µM	2.33 µM	5.08 µM	14.3 µM	6.61 µM	4.44 µM	7.23 µM
C=CCCCC12CCCc3cccc(c31)NC2=O (stereo not drawn)	31.1 µM	48.7 µM	> 100 µM	31.8 µM	–	–	–	–	61.9 µM	> 100 µM	50.4 µM	31.3 µM
O=C1C(Cl)N(c2ccccc2)C1c1c[nH]c2ccccc12 (stereo not drawn)	> 100 µM	> 100 µM	> 100 µM	> 100 µM	–	–	> 100 µM	> 100 µM	> 100 µM	> 100 µM	> 100 µM	> 100 µM
O=C(OCc1ccccc1)OOC(=O)OCc1ccccc1	> 100 µM	> 100 µM	> 100 µM	> 100 µM	–	–	–	> 100 µM	> 100 µM	> 100 µM	> 100 µM	> 100 µM
CO/N=C1/c2sccc2[C@H](NC(=O)CNC(=O)OC(C)(C)C)[C@@H]1O	> 100 µM	> 100 µM	> 100 µM	> 100 µM	> 100 µM	> 100 µM	> 100 µM	> 100 µM	> 100 µM	> 100 µM	> 100 µM	–
CC(C)CCNC(=O)c1ccc(CNC(=O)/C=C/c2ccc(OCc3ccccc3)cc2)cc1	> 100 µM	–	> 100 µM	> 100 µM	–	> 100 µM	> 100 µM	> 100 µM	> 100 µM	> 100 µM	> 100 µM	–
COC(=O)C1CC(C=[N+](C)C)=C(SC)N1 (stereo not drawn)	> 100 µM	–	–	> 100 µM	> 100 µM	> 100 µM	> 100 µM	> 100 µM	> 100 µM	–	> 100 µM	> 100 µM
O=C(CCc1ccc(O)cc1)c1c(O)cc(O)cc1OC1OC(CO)C(O)C(O)C1O (stereo not drawn)	> 100 µM	–	–	> 100 µM	> 100 µM	> 100 µM	–	> 100 µM	–	–	> 100 µM	–
CCOc1ccc(N=C/C=C(\Cl)c2ccc3ccccc3c2)cc1	37.7 µM	33.8 µM	–	33.3 µM	82.2 µM	43.9 µM	32.8 µM	33.4 µM	35.7 µM	33.9 µM	30.8 µM	52.1 µM
CC(C)=CC1C(C(=O)O)C1(C)C (stereo not drawn)	–	> 750 µM	> 750 µM	> 750 µM	–	–	> 750 µM	> 750 µM	> 750 µM	> 750 µM	> 750 µM	> 750 µM
N#CSCc1cccc(Nc2cc(=O)[nH]c(=O)[nH]2)c1	> 100 µM	–	–	85.7 µM	> 100 µM	> 100 µM	> 100 µM	> 100 µM	> 100 µM	> 100 µM	> 100 µM	> 100 µM
COC(c1ccc(C(C)(C)C)cc1)(c1ccc(C(C)(C)C)cc1)c1cc(C(O)(c2cc(C(OC)(c3ccc(C(C)(C)C)cc3)c3ccc(C(C)(C)C)cc3)c(C)cc2C)c2cc(C(OC)(c3ccc(C(C)(C)C)cc3)c3ccc(C(C)(C)C)cc3)c(C)cc2C)c(C)cc1C	> 100 µM	> 100 µM	> 100 µM	> 100 µM	> 100 µM	> 100 µM	> 100 µM	> 100 µM	–	–	> 100 µM	–
Cc1nc2cc(C(F)(F)F)ccc2[nH]c1=O	> 100 µM	> 100 µM	> 100 µM	> 100 µM	> 100 µM	> 100 µM	> 100 µM	> 100 µM	> 100 µM	> 100 µM	> 100 µM	–
CCOC(=O)C(=O)N1C(C)=C(C(=O)OCC)CC(C(=O)OCC)=C1C	> 100 µM	> 100 µM	> 100 µM	> 100 µM	> 100 µM	> 100 µM	–	> 100 µM	> 100 µM	> 100 µM	> 100 µM	> 100 µM
O=C(O[C@H](/C=C/c1ccccc1)P1(=O)N(Cc2ccccc2)[C@@H]2CCCC[C@H]2N1Cc1ccccc1)c1ccccc1	> 100 µM	> 100 µM	> 100 µM	6.72 µM	> 100 µM	96.3 µM	> 100 µM	–	> 100 µM	9.68 µM	> 100 µM	> 100 µM
CC1=CC(=O)N(n2c(C)n[nH]c2=O)C1=O	> 100 µM	–	> 100 µM	> 100 µM	> 100 µM	> 100 µM	> 100 µM	–	> 100 µM	> 100 µM	> 100 µM	> 100 µM
CC(=O)Nc1ccc(Cl)c(Cl)c1	> 100 µM	–	> 100 µM	–	–	–	> 100 µM	> 100 µM	> 100 µM	> 100 µM	> 100 µM	> 100 µM
COC1C=CC23c4cc5c(cc4C(O)OC2CN(C)C3C1)OCO5 (stereo not drawn)	3.15 µM	3.17 µM	7.21 µM	–	–	–	9.2 µM	–	7.36 µM	7.88 µM	7.3 µM	7 µM
